# Results as given in ChEMBL document CHEMBL1132909 (Bioorg Med Chem Lett, 2000).
# Biological target: Neuraminidase (Influenza A virus (A/Puerto Rico/8/1934(H1N1)), UniProt P03468)
# Assay: Inhibition of neuraminidase in Influenza A
# Type: functional
# Chain of Neuraminidase (Influenza A virus (A/Puerto Rico/8/1934(H1N1)), UniProt P03468) (P03468 whole entry): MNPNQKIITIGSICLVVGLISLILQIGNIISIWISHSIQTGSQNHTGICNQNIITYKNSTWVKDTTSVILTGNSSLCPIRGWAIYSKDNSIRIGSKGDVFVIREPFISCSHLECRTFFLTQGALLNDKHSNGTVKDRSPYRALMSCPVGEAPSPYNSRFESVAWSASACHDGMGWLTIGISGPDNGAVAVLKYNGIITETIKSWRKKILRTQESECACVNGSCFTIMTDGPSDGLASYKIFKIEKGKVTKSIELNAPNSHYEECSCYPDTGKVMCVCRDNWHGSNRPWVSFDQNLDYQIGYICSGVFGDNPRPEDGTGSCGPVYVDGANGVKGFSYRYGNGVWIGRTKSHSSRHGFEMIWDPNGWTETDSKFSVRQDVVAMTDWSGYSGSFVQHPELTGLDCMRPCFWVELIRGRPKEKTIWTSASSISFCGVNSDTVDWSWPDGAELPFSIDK
row,Compound,IC50
1,CC(=O)N[C@H]1[C@H](N2CCCCCCC2)C=C(C(=O)O)C[C@@H]1N,26 nM
2,CC(=O)N[C@H]1[C@H](N2CCCCC[C@@H]2CO)C=C(C(=O)O)C[C@@H]1N,8 nM
3,CC(=O)N[C@H]1[C@H](N2CCOCC2)C=C(C(=O)O)C[C@@H]1N,260 nM
4,CC(=O)N[C@H]1[C@H](N2CCCC2)C=C(C(=O)O)C[C@@H]1N,310 nM
5,CC(=O)N[C@H]1[C@H](N2CCCCCCCC2)C=C(C(=O)O)C[C@@H]1N,75 nM
6,CC(=O)N[C@H]1[C@H](N2CCN(C)CC2)C=C(C(=O)O)C[C@@H]1N,1900 nM
7,CCC1CCN([C@@H]2C=C(C(=O)O)C[C@H](N)[C@H]2NC(C)=O)CC1,52 nM
8,CC(=O)N[C@H]1[C@H](N2C3CCCC2CC3)C=C(C(=O)O)C[C@@H]1N,32 nM
9,CCC1(CC)CN([C@@H]2C=C(C(=O)O)C[C@H](N)[C@H]2NC(C)=O)C1,265 nM
10,CC(=O)N[C@H]1[C@H](N2CCC(C)CC2)C=C(C(=O)O)C[C@@H]1N,51 nM
11,CC(=O)N[C@H]1[C@H](N2CCC2)C=C(C(=O)O)C[C@@H]1N,1000 nM
12,CC(=O)N[C@H]1[C@H](N2CCCCCC2)C=C(C(=O)O)C[C@@H]1N,35 nM
13,CCCC1CCN([C@@H]2C=C(C(=O)O)C[C@H](N)[C@H]2NC(C)=O)CC1,40 nM
14,CC(=O)N[C@H]1[C@H](N2CCCCC2)C=C(C(=O)O)C[C@@H]1N,25 nM
